The values below come from patent US20250295748A1 (priority 2020, published 2025).

Structures are written as SMILES. *1 amine or outer side, *2 acyl side, *3 side chain or, on linkers, in order; H or OH if unused. Where a SMILES comes first, the peptide text is derived from it. Bridges are numbered along the chain shown (N, C = ends). [ ]: non-standard residue; d: D form. X1 = CC(C)CCCCCCCCC[C@H](CC(=O)[*:1])O[*:2]

The experiment deals with Bovine Serum Albumin (BSA) (Bos taurus, UniProt P02769). The experiment can be described thus: Thermal shift assay (SYPRO-Orange) of BSA. The experiment is classed as biochemical. Conditions: FIG. 8, BSA 0.1 mg/ml, 1×PBS.
Sequence of Bovine Serum Albumin (BSA) (P02769 25-607): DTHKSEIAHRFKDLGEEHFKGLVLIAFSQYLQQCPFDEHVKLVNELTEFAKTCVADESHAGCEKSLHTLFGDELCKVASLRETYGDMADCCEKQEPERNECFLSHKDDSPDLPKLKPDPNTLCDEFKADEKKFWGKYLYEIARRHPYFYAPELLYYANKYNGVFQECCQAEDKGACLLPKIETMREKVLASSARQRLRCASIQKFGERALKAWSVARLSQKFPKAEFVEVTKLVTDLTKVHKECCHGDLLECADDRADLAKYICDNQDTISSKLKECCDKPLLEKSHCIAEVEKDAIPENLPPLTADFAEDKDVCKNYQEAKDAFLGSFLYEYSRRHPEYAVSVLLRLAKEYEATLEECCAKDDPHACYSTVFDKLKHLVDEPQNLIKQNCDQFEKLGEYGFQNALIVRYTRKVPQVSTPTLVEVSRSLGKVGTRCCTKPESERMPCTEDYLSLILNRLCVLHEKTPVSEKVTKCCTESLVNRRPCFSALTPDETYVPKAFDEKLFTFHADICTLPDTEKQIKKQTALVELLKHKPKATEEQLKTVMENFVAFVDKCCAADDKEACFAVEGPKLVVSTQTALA

`CC(C)CCCCCCCCC[C@@H]1CC(=O)N[C@@H](CCC(=O)O)C(=O)N[C@@H](CC(C)C)C(=O)N[C@H](CC(C)C)C(=O)N[C@@H](C(C)C)C(=O)N[C@@H](CC(=O)O)C(=O)N[C@H](CC(C)C)C(=O)N[C@@H](CC(C)C)C(=O)O1` [Surfactin] (EL[dL]VD[dL]L; linker N-C via X1): the “denaturing activity against BSA (decrease in Tm vs concentration)” value is given as “potent at denaturing BSA but less than 277-SEC”.
